According to patent publication US20100317525A1, “HERBICIDAL MIXTURE” (E.I. DU PONT DE NEMOURS AND COMPANY, priority 2007, published 2010):

Test system: Digitaria nuda
Assay: Test A: postemergence greenhouse control of Digitaria nuda, visual rating
Assay type: in vivo
Conditions: postemergence 3-4-leaf stage, 7 DAT, mean of 3 replicates
Experimental: Plastic pots (10-cm square) were filled to the rim with a sandy loam soil having pH of 6.1, 1.4% organic matter and a cation exchange capacity (CEC) of 5.7 milliequivalents per 100 grams (meq/100 g). The soil was tamped firm to a uniform level of 2.5 cm below the rim of each pot. A measured amount of seeds of Digitaria nuda were scattered on the soil surface. Seeded pots were covered with approximately 50 mL of the same planting soil and tamped. The pots were then placed in a greenhouse and watered thoroughly 2-3 times daily as needed. A balanced fertilizer solution was injected into the watering system to provide 218 ppm of nitrogen. Artificial lighting was used to supplement natural light to produce a 14 h photoperiod. Greenhouse temperatures were targeted for 28.8 ° C. in the day and 19.8 ° C. at night.
When the D. nuda plants reached the 3-4-leaf growth stage (8-12 cm height), the pots were sorted into test units for herbicide application. Treatments were replicated three times. The herbicides were diluted in a measured amount of water and then mixed using a magnetic stir bar for 10 minutes before aliquots were taken to make individual treatment solutions. Diuron was in the form of the DuPont product KARMEX, which is a wettable granule formulation containing 80 weight % active ingredient. Hexazinone was in the form of the DuPont product VELPAR DF, which is a wettable granule formulation containing 75 weight % active ingredient. A mixture of hexazinone and diuron in 11:39 weight ratio was in the form of the DuPont product VELPAR-K (VELPAR-K4) 60 WG, which is a wettable granule formulation containing 13.2 weight % hexazinone and 46.8 weight % diuron active ingredients. A mixture of hexazinone and diuron in 1:8 weight ratio was in the form of the DuPont product VELPAR-K8 (marketed in Brazil as ADVANCE Herbicide), which is a wettable granule formulation containing 6.7 weight % hexazinone and 53.3 weight % diuron active ingredients. Tembotrione was in the form of the Bayer product LAUDIS, which was a suspension concentrate formulation stated to contain […] tembotrione active ingredient and 22 g isoxadifen-ethyl (a herbicide safener) per liter. These products were applied alone and in combinations. Application rates of diuron and hexazinone were 1800 and 210 g ai ha^−1, respectively. The application rates of the VELPAR-K4 mixture of hexazinone and diuron (132 g a.i. hexazinone+468 g a.i. diuron/kg of formulated product) and VELPAR-K8 mixture of hexazinone and diuron (67 g a.i. hexazinone+533 g a.i. diuron/kg of formulated product) were 1200 and 1800 g total a.i. ha^−1, respectively. Application rates of tembotrione were 30, 60, 90 and 120 g a.i./ha. (“a.i.” means active ingredient.) The pots were then sprayed through a T-Jet 8002E nozzle using a stationary belt sprayer calibrated to deliver 281 L/ha at 276 kPa. Treatments were replicated three times.
The plants were returned to the greenhouse, and then control was visually evaluated relative to the control plants at 7 days after treatment (DAT). A numerical percent rating system was used to describe the response observed from each treatment on a scale of 0 to 100%, in which 0% indicates no response and 100% indicates plant death or near death. The reported results are the mean averages of the three replicates.
Colby's Equation was used to determine the herbicidal effects expected from the mixtures. […]

| Structure (SMILES) | % Control Observed (diuron 1800 g a.i./ha (as KARMEX)) | % Control Observed (tembotrione 30 g a.i./ha (as LAUDIS)) | % Control Observed (tembotrione 60 g a.i./ha (as LAUDIS)) | % Control Observed (tembotrione 90 g a.i./ha (as LAUDIS)) | % Control Observed (tembotrione 120 g a.i./ha (as LAUDIS)) |
| --- | --- | --- | --- | --- | --- |
| CN(C)C(=O)Nc1ccc(Cl)c(Cl)c1 [Diuron, N′(3,4-dichlorophenyl)-N,N-dimethylurea] | 20% | – | – | – | – |
| CS(=O)(=O)c1ccc(C(=O)C2C(=O)CCCC2=O)c(Cl)c1COCC(F)(F)F [Tembotrione, 2-[2-chloro-4-(methylsulfonyl)-3-[(2,2,2-trifluoroethoxy)methyl]-benzoyl]-1,3-cyclohexanedione] | – | 37% | 40% | 53% | 60% |
